Test results as given in patent US20160237059A1, “HETEROCYCLIC SUBSTITUTED TRIFLUOROMETHYL PYRIMIDINONES AND THEIR USE” (BAYER PHARMA AKTIENGESELLSCHAFT, priority 2013, published 2016).
pIC50: −log10 of the molar value.

What was measured:
murine CCR2 = biological target: T1, murine CCR2 (Mus musculus, UniProt P51683); experiment: Functional β-arrestin recruiting test with human MCP-1 (B-2a); assay type: cell-based; conditions: U2OS β-arrestin cell line transfected with murine CCR2; agonist human MCP-1 at EC50 (about 3 nM); in some cases means of several determinations
T1 construct: host or cells: U2OS β-arrestin cell line
T1 sequence (P51683 whole entry): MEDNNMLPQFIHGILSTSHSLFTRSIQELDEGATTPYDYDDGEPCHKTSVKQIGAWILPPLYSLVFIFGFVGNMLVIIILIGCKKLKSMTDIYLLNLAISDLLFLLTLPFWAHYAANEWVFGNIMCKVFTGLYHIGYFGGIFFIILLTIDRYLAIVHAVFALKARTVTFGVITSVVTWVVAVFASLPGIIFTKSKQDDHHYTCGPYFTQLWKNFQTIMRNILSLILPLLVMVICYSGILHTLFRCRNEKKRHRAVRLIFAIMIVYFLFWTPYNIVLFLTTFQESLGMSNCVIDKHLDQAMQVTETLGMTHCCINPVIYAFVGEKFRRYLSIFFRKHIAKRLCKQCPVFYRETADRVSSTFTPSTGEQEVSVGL
Protocol: The antagonistic action of test substances on CCR2 was determined in a β-arrestin test. The PathHunter β-arrestin GPCR test system (DiscoveRx Corporation, Ltd.) is a cell-based functional method for detecting binding of β-arrestin to an activated receptor. The molecular basis is a […] complementation measured by the enzymatic conversion of a chemiluminescent substrate. The test cell used was a U2OS β-arrestin cell line transfected with murine CCR2 (93-0543C3, DiscoveRx Corporation, Ltd.).
The test substances were dissolved in dimethyl sulphoxide (DMSO) at a concentration of 10 mM and serially diluted with DMSO in steps of 1:3.16 for a 10-point dose/activity analysis. According to the desired test concentrations, the substances were pre-diluted in Tyrode with 2 mM CaCl2 and 0.05% BSA.
The cells, cultivated in MEM Eagle (supplemented with 10% FCS, 50 U/ml of penicillin, 50 μg/ml of streptomycin, 250 μg/ml of hygromycin and 500 μg/ml of geniticin), were sown at 2000 cells/25 μl in 384 well, μCLEAR/black cell culture plates from Greiner (#781092) and incubated at 37° C. for 24 h. The sowing medium consisted of Opti-MEM (supplemented with 1% FCS, 50 U/ml of penicillin and 50 μg/ml of streptomycin). The cells were pre-incubated for 10 min with 10 μl of the test substances diluted in buffer, and 10 μl of agonist solution [human MCP-1 (PeproTech, #300-04) in Tyrode with 0.05% BSA) were then added. The human MCP-1 was employed at the concentration which corresponds to the EC50 which had been determined in a preliminary test (usually about 3 nM). After 90 min of incubation at 37° C., the solution was removed, and recruitment of β-arrestin to CCR2 was detected with the aid of the PathHunter detection reagent (93-001, DiscoveRx Corporation, Ltd.) according to the instructions of the manufacturer. Luminescence was measured after an incubation time of 60 min using a proprietary luminescence imaging measuring instrument. The molar concentration of the test substance which caused 50% inhibition of the MCP-1 effect (IC50) was determined using a 4-parameter logistic function (Hill function).

human CCR2 = biological target: T2, human CCR2 (Homo sapiens, UniProt P41597); experiment: Functional Ca2+ release test (B-1); assay type: cell-based; conditions: Chem-1 cell line transfected with human CCR2; 50% inhibition of the MCP-1 effect, MCP-1 at EC50 (about 5 nM); in some cases means of several determinations
T2 construct: host or cells: Chem-1 cell line
T2 sequence (P41597 1-360 isoform P41597-2): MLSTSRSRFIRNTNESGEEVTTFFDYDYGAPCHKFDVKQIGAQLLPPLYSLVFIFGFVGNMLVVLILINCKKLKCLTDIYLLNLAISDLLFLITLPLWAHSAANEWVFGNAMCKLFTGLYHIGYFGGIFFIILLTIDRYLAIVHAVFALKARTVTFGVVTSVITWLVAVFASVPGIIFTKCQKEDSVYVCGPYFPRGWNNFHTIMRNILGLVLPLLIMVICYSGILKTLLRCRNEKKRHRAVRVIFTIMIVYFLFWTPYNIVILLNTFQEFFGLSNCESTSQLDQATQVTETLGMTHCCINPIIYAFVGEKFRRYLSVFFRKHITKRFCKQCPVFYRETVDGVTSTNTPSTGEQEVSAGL
Summary of the method: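 Chem-1 cells expressing human CCR2, loaded with Fluo-4 for 60 min at 37° C, were preincubated 10 min with compound (10-point, 1:3.16 dilutions), then stimulated with MCP-1 at its predetermined EC50 (about 5 nM). Ca2+ release was monitored for 120 s. IC50 came from a 4-parameter Hill fit.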

| Compound | pIC50 (murine CCR2) | pIC50 (human CCR2) |
| --- | --- | --- |
| Nc1ncnn1-c1nc(C(F)(F)F)c(Oc2ccc(Cl)c(Cl)c2)c(=O)[nH]1 [Example 48, 2-(5-Amino-1H-1,2,4-triazol-1-yl)-5-(3,4-dichlorophenoxy)-6-(trifluoromethyl)pyrimidin-4(3H)-one] | 4.52 | 8.38 |
| Nc1cccc(-c2nc(C(F)(F)F)c(Oc3ccc(Cl)c(Cl)c3)c(=O)[nH]2)n1 [Example 43, 2-(6-aminopyridin-2-yl)-5-(3,4-dichlorophenoxy)-6-(trifluoromethyl)pyrimidin-4(3H)-one] | 6.66 | 8.18 |
| O=c1[nH]c(-c2ncc(C(F)(F)F)cc2Cl)nc(C(F)(F)F)c1Oc1ccc(Cl)c(Cl)c1 [Example 6, 2-[3-chloro-5-(trifluoromethyl)pyridin-2-yl]-5-(3,4-dichlorophenoxy)-6-(trifluoromethyl)pyrimidin-4(3H)-one] | 6.82 | 8.32 |
| O=c1[nH]c(-c2cc[nH]n2)nc(C(F)(F)F)c1Cc1ccc(Cl)c(Cl)c1 [Example 50, 5-(3,4-dichlorobenzyl)-2-(1H-pyrazol-3-yl)-6-(trifluoromethyl)pyrimidin-4(3H)-one] | 8.33 | 9.70 |
| O=c1[nH]c(-c2ccccn2)nc(C(F)(F)F)c1Cc1ccc(Cl)c(Cl)c1 [Example 1, 5-(3,4-Dichlorobenzyl)-2-(pyridin-2-yl)-6-(trifluoromethyl)pyrimidin-4(3H)-one] | 6.96 | 8.46 |
| Cc1cc(-c2nc(C(F)(F)F)c(Cc3ccc(Cl)c(Cl)c3)c(=O)[nH]2)nn1C [Example 55, 5-(3,4-dichlorobenzyl)-2-(1,5-dimethyl-1H-pyrazol-3-yl)-6-(trifluoromethyl)pyrimidin-4(3H)-one] | 6.96 | 8.36 |
| O=c1[nH]c(-c2ncccc2F)nc(C(F)(F)F)c1Cc1ccc(Cl)c(C(F)(F)F)c1 [Example 34, 5-[4-chloro-3-(trifluoromethyl)benzyl]-2-(3-fluoropyridin-2-yl)-6-(trifluoromethyl)pyrimidin4(3H)-one] | 6.96 | 8.57 |
| O=c1[nH]c(-c2ccc(Cl)cn2)nc(C(F)(F)F)c1Cc1ccc(Cl)c(Cl)c1 [Example 22, 2-(5-chloropyridin-2-yl)-5-(3,4-dichlorobenzyl)-6-(trifluoromethyl)pyrimidin-4(3H)-one] | 6.40 | 8.15 |
| Cc1ccc(-c2nc(C(F)(F)F)c(Cc3ccc(Cl)c(Cl)c3)c(=O)[nH]2)nc1 [Example 19] | 6.52 | 8.01 |
| O=c1[nH]c(-c2ncc(F)cc2F)nc(C(F)(F)F)c1Cc1ccc(Cl)c(Cl)c1 [Example 18, 5-(3,4-dichlorobenzyl)-2-(3,5-difluoropyridin-2-yl)-6-(trifluoromethyl)pyrimidin-4(3H)-one] | 6.85 | 7.85 |
| Cn1ncc(-c2nc(C(F)(F)F)c(Cc3ccc(Cl)c(Cl)c3)c(=O)[nH]2)c1N [Example 61, 2-(5-amino-1-methyl-1H-pyrazol-4-yl)-5-(3,4-dichlorobenzyl)-6-(trifluoromethyl)pyrimidin-4(3H)-one] | 6.66 | 7.44 |

Further lines, results first:

| pIC50 (murine CCR2) | pIC50 (human CCR2) | Compound |
| --- | --- | --- |
| 5.85 | 6.74 | Cn1cnc(Nc2nc(C(F)(F)F)c(Oc3ccc(Cl)c(Cl)c3)c(=O)[nH]2)n1 [Example 106, 5-(3,4-dichlorophenoxy)-2-[(1-methyl-1H-1,2,4-triazol-3-yl)amino]-6-(trifluoromethyl)pyrimidin-4(3H)-one] |
| 6.80 | 8.03 | O=c1[nH]c(Nc2cn[nH]c2)nc(C(F)(F)F)c1Oc1ccc(Cl)c(C(F)(F)F)c1 [Example 104, 5-[4-Chloro-3-(trifluoromethyl)phenoxy]-2-(1H-pyrazol-4-ylamino)-6-(trifluoromethyl)pyrimidin-4(3H)-one] |
| 6.21 | 7.24 | O=c1[nH]nc(Cc2nc(C(F)(F)F)c(Cc3ccc(Cl)c(Cl)c3)c(=O)[nH]2)[nH]1 [Example 90, 5-(3,4-Dichlorobenzyl)-2-[(5-oxo-4,5-dihydro-1H-1,2,4-triazol-3-yl)methyl]-6-(trifluoromethyl)pyrimidin-4(3H)-one] |
| 6.32 | 7.23 | Cc1cc(Nc2nc(C(F)(F)F)c(Oc3ccc(Cl)c(Cl)c3)c(=O)[nH]2)on1 [Example 109] |
| 6.92 | 7.89 | CCOC(=O)c1nc(-c2nc(C(F)(F)F)c(Oc3ccc(Cl)c(Cl)c3)c(=O)[nH]2)no1 [Example 260, Ethyl 3-[5-(3,4-dichlorophenoxy)-6-oxo-4-(trifluoromethyl)-1,6-dihydropyrimidin-2-yl]-1,2,4-oxadiazole-5-carboxylate x N,N-diisopropylethylamine] |
| 7.07 | 8.04 | O=c1[nH]c(-c2noc(C(F)(F)F)n2)nc(C(F)(F)F)c1Oc1ccc(Cl)c(Cl)c1 [Example 84, 5-(3,4-Dichlorophenoxy)-6-(trifluoromethyl)-2-[5-(trifluoromethyl)-1,2,4-oxadiazol-3-yl]pyrimidin-4(3H)-one] |
| 6.17 | 6.74 | Cn1nc(Cc2nc(C(F)(F)F)c(Cc3ccc(Cl)c(Cl)c3)c(=O)[nH]2)[nH]c1=O [Example 263, 5-(3,4-Dichlorobenzyl)-2-[(1-methyl-5-oxo-4,5-dihydro-1H-1,2,4-triazol-3-yl)methyl]-6-(trifluoromethyl)pyrimidin-4(3H)-one] |
| 6.96 | 7.72 | COCc1nc(-c2nc(C(F)(F)F)c(Oc3ccc(Cl)c(Cl)c3)c(=O)[nH]2)no1 [Example 81, 5-(3,4-dichlorophenoxy)-2-[5-(methoxymethyl)-1,2,4-oxadiazol-3-yl]-6-(trifluoromethyl)pyrimidin-4(3H)-one x N,N-diisopropylethylamine] |
| 6.42 | 7.57 | O=C1OCCN1c1nc(C(F)(F)F)c(Cc2ccc(Cl)c(Cl)c2)c(=O)[nH]1 [Example 112, 5-(3,4-Dichlorobenzyl)-2-(2-oxo-1,3-oxazolidin-3-yl)-6-(trifluoromethyl)pyrimidin-4(3H)-one] |
| 6.59 | 6.82 | COc1cccnc1Nc1nc(C(F)(F)F)c(Oc2ccc(Cl)c(Cl)c2)c(=O)[nH]1 [Example 102, 5-(3,4-dichlorophenoxy)-2-[(3-methoxypyridin-2-yl)amino]-6-(trifluoromethyl)pyrimidin-4(3H)-one] |
| 5.85 | 6.44 | O=c1[nH]c(N2CCCC2)nc(C(F)(F)F)c1Cc1ccc(Cl)c(Cl)c1 [Example 175, 5-(3,4-dichlorobenzyl)-2-(pyrrolidin-1-yl)-6-(trifluoromethyl)pyrimidin-4(3H)-one] |
| 6.96 | 8.36 | O=c1[nH]c(-c2cn[nH]c2)nc(C(F)(F)F)c1Oc1ccc(Cl)c(Cl)c1 [Example 66, 5-(3,4-dichlorophenoxy)-2-(1H-pyrazol-4-yl)-6-(trifluoromethyl)pyrimidin-4(3H)-one] |
| 6.27 | 7.48 | O=c1[nH]c(-c2ccc3ccccc3n2)nc(C(F)(F)F)c1Oc1ccc(Cl)c(Cl)c1 [Example 178] |
| 5.85 | 6.80 | O=c1[nH]c(NC2CCOC2)nc(C(F)(F)F)c1Oc1ccc(Cl)c(Cl)c1 (stereo not drawn) [Example 245] |
| 6.43 | 7.96 | O=c1[nH]nc(Cc2nc(C(F)(F)F)c(Cc3ccc(Cl)c(Cl)c3)c(=O)[nH]2)o1 [Example 89, 5-(3,4-Dichlorobenzyl)-2-[(5-oxo-4,5-dihydro-1,3,4-oxadiazol-2-yl)methyl]-6-(trifluoromethyl)pyrimidin-4(3H)-one] |
| 7.00 | 8.26 | O=c1[nH]c(-c2cn[nH]c2)nc(C(F)(F)F)c1Cc1ccc(Cl)c(Cl)c1 [Example 63, 5-(3,4-dichlorobenzyl)-2-(1H-pyrazol-4-yl)-6-(trifluoromethyl)pyrimidin-4(3H)-one] |
